According to publication PMC5218480 (PLoS ONE, 2017):

Test system: MV-4-11 cells
Assay: Gene expression microarray analysis (Affymetrix PrimeView) and GSEA
Format: cell-based, human
Set-up: RFU PODN (11730768_x_at) / Fold change /veh PODN (11730768_x_at) / RFU LINC00158 (11744669_a_at) / Fold change /veh LINC00158 (11744669_a_at) / RFU DUSP10 (11751237_a_at) / Fold change /veh DUSP10 (11751237_a_at) / RFU ID3 (11757404_x_at) / Fold change /veh ID3 (11757404_x_at) / RFU PLEKHG5 (11737974_s_at) / Fold change /veh PLEKHG5 (11737974_s_at) / RFU LRRC4B (11730491_at) / Fold change /veh LRRC4B (11730491_at) / RFU GIMAP4 (11747438_a_at) / Fold change /veh GIMAP4 (11747438_a_at) / RFU KRT8 (11758183_x_at) / Fold change /veh KRT8 (11758183_x_at) / RFU CNN1 (11734310_a_at) / Fold change /veh CNN1 (11734310_a_at) / RFU VPS37D (11726825_at) / Fold change /veh VPS37D (11726825_at) / RFU C10orf10 (11716522_x_at) / Fold change /veh C10orf10 (11716522_x_at) / RFU KIR2DL2 /// KIR2DL4 /// KIR2DL5A /// KIR2DL5B /// KIR2DS1 /// KIR2DS2 /// KIR2DS3 /// KIR2DS4 /// KIR3DL3 /// KIR3DL3 /// KIR3DS1 (11738374_at) / Fold change /veh KIR2DL2 /// KIR2DL4 /// KIR2DL5A /// KIR2DL5B /// KIR2DS1 /// KIR2DS2 /// KIR2DS3 /// KIR2DS4 /// KIR3DL3 /// KIR3DL3 /// KIR3DS1 (11738374_at) / RFU C1QL1 (11718748_at) / Fold change /veh C1QL1 (11718748_at) / RFU TMPRSS4 (11747572_a_at) / Fold change /veh TMPRSS4 (11747572_a_at) / RFU HAMP (11756126_x_at) / Fold change /veh HAMP (11756126_x_at) / RFU RNFT2 (11725882_a_at) / Fold change /veh RNFT2 (11725882_a_at) / RFU NR4A2 (11747474_a_at) / Fold change /veh NR4A2 (11747474_a_at) / RFU ABCC12 (11746883_a_at) / Fold change /veh ABCC12 (11746883_a_at) / RFU TMEM136 (11760407_x_at) / Fold change /veh TMEM136 (11760407_x_at) / RFU CLDN22 /// WWC2 (11732394_at) / Fold change /veh CLDN22 /// WWC2 (11732394_at) / RFU HLA-DPB1 (11760878_x_at) / Fold change /veh HLA-DPB1 (11760878_x_at) / RFU SPINT1 (11716480_a_at) / Fold change /veh SPINT1 (11716480_a_at) / RFU GAP43 (11754022_s_at) / Fold change /veh GAP43 (11754022_s_at) / RFU A4GNT (11735810_at) / Fold change /veh A4GNT (11735810_at) / RFU PRB3 (11715151_x_at) / Fold change /veh PRB3 (11715151_x_at) / RFU TUBB4B (11761932_at) / Fold change /veh TUBB4B (11761932_at) / RFU CAPN14 (11732068_a_at) / Fold change /veh CAPN14 (11732068_a_at) / RFU TMCC2 (11721928_a_at) / Fold change /veh TMCC2 (11721928_a_at) / RFU IRGQ (11745062_a_at) / Fold change /veh IRGQ (11745062_a_at) / RFU FAM174B (11720279_a_at) / Fold change /veh FAM174B (11720279_a_at) / RFU TMPRSS4 (11748680_a_at) / Fold change /veh TMPRSS4 (11748680_a_at) / RFU FAM212B (11763350_a_at) / Fold change /veh FAM212B (11763350_a_at) / RFU PLEKHG5 (11743358_a_at) / Fold change /veh PLEKHG5 (11743358_a_at) / RFU ZSCAN30 (11745921_a_at) / Fold change /veh ZSCAN30 (11745921_a_at) / RFU CMKLR1 (11741424_a_at) / Fold change /veh CMKLR1 (11741424_a_at) / RFU LOC101060620 /// MAPK8IP1 (11723275_at) / Fold change /veh LOC101060620 /// MAPK8IP1 (11723275_at) / RFU SPTSSB (11747773_x_at) / Fold change /veh SPTSSB (11747773_x_at) / RFU PRSS12 (11739890_at) / Fold change /veh PRSS12 (11739890_at) / RFU BIN1 (11741810_x_at) / Fold change /veh BIN1 (11741810_x_at) / RFU WNT11 (11732464_a_at) / Fold change /veh WNT11 (11732464_a_at) / RFU C10orf10 (11716521_a_at) / Fold change /veh C10orf10 (11716521_a_at) / RFU C5orf56 (11738089_at) / Fold change /veh C5orf56 (11738089_at) / RFU CYB561 (11721691_x_at) / Fold change /veh CYB561 (11721691_x_at) / RFU ANKRD19P (11752326_a_at) / Fold change /veh ANKRD19P (11752326_a_at) / RFU OR2T12 /// OR2T33 /// OR2T8 (11738714_s_at) / Fold change /veh OR2T12 /// OR2T33 /// OR2T8 (11738714_s_at) / RFU VCAN (11748164_a_at) / Fold change /veh VCAN (11748164_a_at) / RFU JSRP1 (11732532_at) / Fold change /veh JSRP1 (11732532_at) / RFU KRTAP10-11 (11738290_x_at) / Fold change /veh KRTAP10-11 (11738290_x_at) / RFU MYO3A (11730013_a_at) / Fold change /veh MYO3A (11730013_a_at) / RFU EBF3 (11725865_a_at) / Fold change /veh EBF3 (11725865_a_at) / RFU CAMK2N1 (11719241_x_at) / Fold change /veh CAMK2N1 (11719241_x_at) / RFU C5orf56 (11738088_a_at) / Fold change /veh C5orf56 (11738088_a_at) / RFU OLFML3 (11715873_a_at) / Fold change /veh OLFML3 (11715873_a_at) / RFU LOC100653217 /// NTM (11731650_a_at) / Fold change /veh LOC100653217 /// NTM (11731650_a_at) / RFU MAPK11 (11762145_a_at) / Fold change /veh MAPK11 (11762145_a_at) / RFU FIZ1 (11724087_x_at) / Fold change /veh FIZ1 (11724087_x_at) / RFU OASL (11726364_x_at) / Fold change /veh OASL (11726364_x_at) / RFU SOX15 (11748057_x_at) / Fold change /veh SOX15 (11748057_x_at) / RFU CD79A (11719716_a_at) / Fold change /veh CD79A (11719716_a_at) / RFU HIST1H1D (11736915_at) / Fold change /veh HIST1H1D (11736915_at) / RFU CASKIN2 (11723855_a_at) / Fold change /veh CASKIN2 (11723855_a_at) / RFU LOC730098 (11760151_x_at) / Fold change /veh LOC730098 (11760151_x_at) / RFU OR4N2 (11742367_at) / Fold change /veh OR4N2 (11742367_at) / RFU PRRT2 (11749266_a_at) / Fold change /veh PRRT2 (11749266_a_at) / RFU SNX32 (11753110_a_at) / Fold change /veh SNX32 (11753110_a_at) / RFU CDHR5 (11726645_a_at) / Fold change /veh CDHR5 (11726645_a_at) / RFU RCAN1 (11760418_a_at) / Fold change /veh RCAN1 (11760418_a_at) / RFU FAM167A (11723789_a_at) / Fold change /veh FAM167A (11723789_a_at) / RFU FAM26E (11764081_at) / Fold change /veh FAM26E (11764081_at) / RFU ISYNA1 (11749810_s_at) / Fold change /veh ISYNA1 (11749810_s_at) / RFU ACY1 (11761880_at) / Fold change /veh ACY1 (11761880_at) / RFU 11764098_at / Fold change /veh 11764098_at / RFU SAMD14 (11745864_x_at) / Fold change /veh SAMD14 (11745864_x_at) / RFU NPB (11741838_a_at) / Fold change /veh NPB (11741838_a_at) / RFU TMPRSS6 (11731388_a_at) / Fold change /veh TMPRSS6 (11731388_a_at) / RFU KRTAP10-2 (11738614_at) / Fold change /veh KRTAP10-2 (11738614_at) / RFU ARHGAP8 /// PRR5-ARHGAP8 (11727945_x_at) / Fold change /veh ARHGAP8 /// PRR5-ARHGAP8 (11727945_x_at) / RFU KRTAP5-7 /// NADSYN1 (11734609_at) / Fold change /veh KRTAP5-7 /// NADSYN1 (11734609_at) / RFU RASL12 (11751679_a_at) / Fold change /veh RASL12 (11751679_a_at) / RFU CDKN2B (11736163_a_at) / Fold change /veh CDKN2B (11736163_a_at) / RFU PRF1 (11729649_at) / Fold change /veh PRF1 (11729649_at) / RFU, ZNF638 /// ZNF638-IT1 / Fold change vs veh, ZNF638 /// ZNF638-IT1 / RFU, PANK3 / Fold change vs veh, PANK3 / RFU, SH3YL1 / Fold change vs veh, SH3YL1 / RFU, ZEB2 / Fold change vs veh, ZEB2 / RFU, NRIP1 / Fold change vs veh, NRIP1 / RFU, PTTG1IP / Fold change vs veh, PTTG1IP / RFU, CAPN2 / Fold change vs veh, CAPN2 / RFU, MED14 / Fold change vs veh, MED14 / RFU, SNORA58 / Fold change vs veh, SNORA58 / RFU, C1orf63 / Fold change vs veh, C1orf63 / RFU, LRRFIP1 / Fold change vs veh, LRRFIP1 / RFU, NDUFAF7 / Fold change vs veh, NDUFAF7 / RFU, SLC12A2 / Fold change vs veh, SLC12A2 / RFU, IBTK / Fold change vs veh, IBTK / RFU, ESF1 / Fold change vs veh, ESF1 / Fold change vs veh, TMEM50B / RFU, TAOK1 / Fold change vs veh, TAOK1 / RFU, ACBD3 / Fold change vs veh, ACBD3 / RFU, TMA16 / Fold change vs veh, TMA16 / RFU, RWDD3 / Fold change vs veh, RWDD3 / RFU, BCAT1 / Fold change vs veh, BCAT1 / RFU, EDEM3 / Fold change vs veh, EDEM3 / RFU, TMEM33 / Fold change vs veh, TMEM33 / RFU, WDR75 / Fold change vs veh, WDR75 / RFU, AHCTF1 / Fold change vs veh, AHCTF1 / RFU, TFRC / Fold change vs veh, TFRC / RFU, ZDHHC17 / Fold change vs veh, ZDHHC17 / RFU, NOM1 / Fold change vs veh, NOM1 / RFU, ARL8B / Fold change vs veh, ARL8B / RFU, ZBTB11 / Fold change vs veh, ZBTB11 / RFU, TAMM41 / Fold change vs veh, TAMM41 / RFU, KIAA1704 /// LOC100996395 / Fold change vs veh, KIAA1704 /// LOC100996395 / RFU, ING1 / Fold change vs veh, ING1 / RFU, TRMT61B / Fold change vs veh, TRMT61B / RFU, FUBP3 / Fold change vs veh, FUBP3 / RFU, TP53 / Fold change vs veh, TP53 / RFU, TNKS2 / Fold change vs veh, TNKS2 / RFU, ZFP14 / Fold change vs veh, ZFP14 / RFU, ACTR2 / Fold change vs veh, ACTR2 / RFU, PPP3R1 / Fold change vs veh, PPP3R1 / RFU, PIK3R1 / Fold change vs veh, PIK3R1 / RFU, HNRNPA1 / Fold change vs veh, HNRNPA1 / RFU, RNF170 / Fold change vs veh, RNF170 / RFU, ZNF28 / Fold change vs veh, ZNF28 / RFU, RNGTT / Fold change vs veh, RNGTT / RFU, OGT / Fold change vs veh, OGT / RFU, BRD1 / Fold change vs veh, BRD1 / RFU, MARS / Fold change vs veh, MARS / RFU, ZNF655 / Fold change vs veh, ZNF655 / RFU, FAHD1 / Fold change vs veh, FAHD1 / RFU, BDP1 / Fold change vs veh, BDP1 / RFU, LRRCC1 / Fold change vs veh, LRRCC1 / RFU, ARID1A / Fold change vs veh, ARID1A / RFU, ZNF146 / Fold change vs veh, ZNF146 / RFU, ZNF330 / Fold change vs veh, ZNF330 / RFU, GPN3 / Fold change vs veh, GPN3 / RFU, C9orf123 / Fold change vs veh, C9orf123 / RFU, N4BP2L2 / Fold change vs veh, N4BP2L2 / RFU, ARFIP1 / Fold change vs veh, ARFIP1 / RFU, FAM179B / Fold change vs veh, FAM179B / RFU, BCL10 / Fold change vs veh, BCL10 / RFU, UHRF1BP1L / Fold change vs veh, UHRF1BP1L / RFU, BET1 / Fold change vs veh, BET1 / RFU, CNOT2 / Fold change vs veh, CNOT2 / RFU, ZNF268 / Fold change vs veh, ZNF268 / Fold change vs veh, ZNF507 / RFU, DGCR2 / Fold change vs veh, DGCR2 / RFU, WDSUB1 / Fold change vs veh, WDSUB1 / Fold change vs veh, HSP90B1 /// MIR3652 / RFU, ADSS / Fold change vs veh, ADSS / RFU, GK / Fold change vs veh, GK / RFU, ZNF148 / Fold change vs veh, ZNF148 / RFU, TAF9 / Fold change vs veh, TAF9 / RFU, SLC1A5 / Fold change vs veh, SLC1A5 / RFU, SLMO2 / Fold change vs veh, SLMO2 / RFU, ABCC4 / Fold change vs veh, ABCC4 / RFU, LOC101060439 /// RAP1B / Fold change vs veh, LOC101060439 /// RAP1B / RFU, RFX7 / Fold change vs veh, RFX7 / RFU, GTPBP10 / Fold change vs veh, GTPBP10 / RFU, CNEP1R1 / Fold change vs veh, CNEP1R1 / RFU, BIVM-ERCC5 /// ERCC5 / Fold change vs veh, BIVM-ERCC5 /// ERCC5 / RFU, ILF3 / Fold change vs veh, ILF3 / RFU 11762660_at / Fold change /veh 11762660_at / RFU VCAN (11757783_s_at) / Fold change /veh VCAN (11757783_s_at) / RFU DDX43 (11728927_at) / Fold change /veh DDX43 (11728927_at) / RFU KRT8 (11758188_x_at) / Fold change /veh KRT8 (11758188_x_at) / RFU NKD1 (11759106_at) / Fold change /veh NKD1 (11759106_at) / RFU SRD5A1 (11742802_a_at) / Fold change /veh SRD5A1 (11742802_a_at) / RFU TPSAB1 /// TPSB2 (11721975_s_at) / Fold change /veh TPSAB1 /// TPSB2 (11721975_s_at) / RFU GSTM3 (11746129_a_at) / Fold change /veh GSTM3 (11746129_a_at) / RFU IL23R (11737362_x_at) / Fold change /veh IL23R (11737362_x_at) / RFU TMEM51 (11727254_a_at) / Fold change /veh TMEM51 (11727254_a_at) / RFU PIWIL2 (11732686_x_at) / Fold change /veh PIWIL2 (11732686_x_at) / RFU ORM1 (11744905_x_at) / Fold change /veh ORM1 (11744905_x_at) / RFU CCDC152 (11743942_at) / Fold change /veh CCDC152 (11743942_at) / RFU ECM1 (11717891_a_at) / Fold change /veh ECM1 (11717891_a_at) / RFU IL23R (11748794_a_at) / Fold change /veh IL23R (11748794_a_at) / RFU TNFAIP8L3 (11732012_x_at) / Fold change /veh TNFAIP8L3 (11732012_x_at) / RFU MBOAT4 (11741988_at) / Fold change /veh MBOAT4 (11741988_at) / RFU 11764193_at / Fold change /veh 11764193_at / RFU TMEM53 (11763286_at) / Fold change /veh TMEM53 (11763286_at) / RFU MAGEB2 (11727129_at) / Fold change /veh MAGEB2 (11727129_at) / RFU TMEM200A (11744735_a_at) / Fold change /veh TMEM200A (11744735_a_at) / RFU CCDC152 (11751479_a_at) / Fold change /veh CCDC152 (11751479_a_at) / RFU FAM211A (11726209_a_at) / Fold change /veh FAM211A (11726209_a_at) / RFU RGS16 (11746705_a_at) / Fold change /veh RGS16 (11746705_a_at) / RFU VCAN (11755009_s_at) / Fold change /veh VCAN (11755009_s_at) / RFU RHOB (11743442_s_at) / Fold change /veh RHOB (11743442_s_at) / RFU RGS16 (11720943_a_at) / Fold change /veh RGS16 (11720943_a_at) / RFU RGS16 (11720944_at) / Fold change /veh RGS16 (11720944_at) / RFU, VPS4B / Fold change vs veh, VPS4B / RFU, CREB1 / Fold change vs veh, CREB1 / RFU, DNAJC13 / Fold change vs veh, DNAJC13 / RFU, GNAQ / Fold change vs veh, GNAQ / RFU, CDK5R1 / Fold change vs veh, CDK5R1 / RFU, ZRANB3 / Fold change vs veh, ZRANB3 / RFU, CUL4A / Fold change vs veh, CUL4A / RFU, CCNY / Fold change vs veh, CCNY / RFU, UFL1 / Fold change vs veh, UFL1 / RFU, COG3 / Fold change vs veh, COG3 / RFU, DIAPH2 / Fold change vs veh, DIAPH2 / RFU, SKA2 / Fold change vs veh, SKA2 / RFU, AFF3 / Fold change vs veh, AFF3 / RFU, LMF1 / Fold change vs veh, LMF1 / RFU, IPO11 / Fold change vs veh, IPO11 / RFU, DFFB / Fold change vs veh, DFFB / RFU, FOXP1 / Fold change vs veh, FOXP1 / RFU, CARD8 / Fold change vs veh, CARD8 / RFU, STRN3 / Fold change vs veh, STRN3 / RFU, ADK / Fold change vs veh, ADK / RFU, RASSF2 / Fold change vs veh, RASSF2 / RFU, WIPF1 / Fold change vs veh, WIPF1 / RFU, LARP1B / Fold change vs veh, LARP1B / RFU, RASA1 / Fold change vs veh, RASA1 / RFU, RB1 / Fold change vs veh, RB1 / RFU, PPFIA1 / Fold change vs veh, PPFIA1 / RFU, MAT2A / Fold change vs veh, MAT2A / RFU, CCT5 / Fold change vs veh, CCT5 / RFU, WDR92 / Fold change vs veh, WDR92 / RFU, CUX1 / Fold change vs veh, CUX1 / RFU, TTC7A / Fold change vs veh, TTC7A / RFU, TMEM135 / Fold change vs veh, TMEM135 / RFU, DEPTOR / Fold change vs veh, DEPTOR / RFU, CPM / Fold change vs veh, CPM / RFU, DNAJB6 / Fold change vs veh, DNAJB6 / RFU, CACNA2D3 / Fold change vs veh, CACNA2D3 / RFU, DTX4 / Fold change vs veh, DTX4 / RFU, TFCP2 / Fold change vs veh, TFCP2 / RFU, GMCL1 /// GMCL1P1 / Fold change vs veh, GMCL1 /// GMCL1P1 / RFU, AEBP2 / Fold change vs veh, AEBP2 / RFU, SNHG1 /// SNORD22 /// SNORD25 /// SNORD26 /// SNORD27 /// SNORD28 /// SNORD29 /// SNORD31 / Fold change vs veh, SNHG1 /// SNORD22 /// SNORD25 /// SNORD26 /// SNORD27 /// SNORD28 /// SNORD29 /// SNORD31 / Fold change (Aza/veh), C12orf56 (ProbeSet 11735607_a_at) / Fold change (ACY-1035/veh), C12orf56 (ProbeSet 11735607_a_at) / Fold change (Aza/veh), FGFR1OP (ProbeSet 11751329_s_at) / Fold change (ACY-1035/veh), FGFR1OP (ProbeSet 11751329_s_at) / Fold change (Aza/veh), VPS36 (ProbeSet 11739960_a_at) / Fold change (ACY-1035/veh), VPS36 (ProbeSet 11739960_a_at) / RFU SYPL1 (11715823_x_at) / Fold change /veh SYPL1 (11715823_x_at) / RFU IGFBP7 (11715501_s_at) / Fold change /veh IGFBP7 (11715501_s_at) / RFU REEP3 (11722064_at) / Fold change /veh REEP3 (11722064_at) / RFU IGLL1 (11728026_x_at) / Fold change /veh IGLL1 (11728026_x_at): dose or concentration left out as unconfirmed
Conditions: ProbeSet 11716999_a_at; LIST D

Nc1ccc(-c2cccs2)cc1NC(=O)c1ccc2c(c1)cc(C1CC1)n2CCN1CCOCC1 [ACY-1035]
RFU, RASA1: 200.63 RFU
